Reference: publication PMC6679423 (International Journal of Molecular Sciences, 2019)

Key:
[1] = target: CYP enzymes in human liver microsomes (Homo sapiens, UniProt P08684); assay: Effects of inhibitors on N-desmethylvandetanib formation in human liver microsomes; details: inhibitor 50 μM equimolar to vandetanib (50 μM), 0.1 nmol microsomal CYP
Experimental: (§1) After the incubations, 5 µL of 1 mM phenacetine (dissolved in methanol) was added as internal standard. The reaction was stopped by extraction with dichlormethane (2 × 1 mL).
(§2) Inhibition studies in human liver microsomes were essentially conducted as reported previously.

[2] = target: CYP enzymes in human liver microsomes (N-desmethylvandetanib formation) (Homo sapiens, UniProt P08684); assay: as above; details: human, pH 7.4
Experimental: as §1, §2

[3] = target: T1, FMO in human liver microsomes (Homo sapiens, UniProt P31513); assay: Effects of inhibitors on vandetanib-N-oxide formation in human liver microsomes; type: in vitro ADME; details: inhibitor 50 μM equimolar to vandetanib (50 μM), 0.25 mg microsomal protein
T1 sequence (P31513 2-532): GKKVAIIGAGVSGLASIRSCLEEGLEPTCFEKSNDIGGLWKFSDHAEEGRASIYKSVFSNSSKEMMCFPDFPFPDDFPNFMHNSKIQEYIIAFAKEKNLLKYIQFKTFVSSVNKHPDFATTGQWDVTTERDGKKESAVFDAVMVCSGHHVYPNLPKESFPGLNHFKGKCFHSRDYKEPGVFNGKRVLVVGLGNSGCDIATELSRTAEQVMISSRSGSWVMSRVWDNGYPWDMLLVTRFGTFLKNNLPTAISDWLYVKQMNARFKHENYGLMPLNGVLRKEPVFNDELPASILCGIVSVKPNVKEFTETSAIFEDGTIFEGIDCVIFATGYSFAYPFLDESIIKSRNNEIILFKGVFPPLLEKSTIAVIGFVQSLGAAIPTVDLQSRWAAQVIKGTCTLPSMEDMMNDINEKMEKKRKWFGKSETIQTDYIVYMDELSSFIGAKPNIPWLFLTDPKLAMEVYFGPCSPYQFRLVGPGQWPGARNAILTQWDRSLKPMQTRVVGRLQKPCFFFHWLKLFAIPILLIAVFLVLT

Chain of CYP enzymes in human liver microsomes (N-desmethylvandetanib formation) (P08684 2-503): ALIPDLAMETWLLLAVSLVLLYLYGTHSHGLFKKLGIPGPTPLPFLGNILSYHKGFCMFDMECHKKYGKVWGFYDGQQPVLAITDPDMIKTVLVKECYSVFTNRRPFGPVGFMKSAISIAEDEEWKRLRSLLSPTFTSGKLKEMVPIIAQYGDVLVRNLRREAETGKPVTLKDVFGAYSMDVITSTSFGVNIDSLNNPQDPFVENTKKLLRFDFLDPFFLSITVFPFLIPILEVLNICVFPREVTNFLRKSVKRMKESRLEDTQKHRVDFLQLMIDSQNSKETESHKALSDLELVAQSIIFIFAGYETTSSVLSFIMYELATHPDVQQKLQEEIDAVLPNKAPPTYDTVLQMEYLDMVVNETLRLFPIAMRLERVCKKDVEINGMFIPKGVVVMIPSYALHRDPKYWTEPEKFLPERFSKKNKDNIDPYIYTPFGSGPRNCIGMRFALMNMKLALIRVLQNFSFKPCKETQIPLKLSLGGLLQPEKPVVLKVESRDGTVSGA
Chain of CYP enzymes in human liver microsomes (N-desmethylvandetanib formation) (P16435 2-677, further chain): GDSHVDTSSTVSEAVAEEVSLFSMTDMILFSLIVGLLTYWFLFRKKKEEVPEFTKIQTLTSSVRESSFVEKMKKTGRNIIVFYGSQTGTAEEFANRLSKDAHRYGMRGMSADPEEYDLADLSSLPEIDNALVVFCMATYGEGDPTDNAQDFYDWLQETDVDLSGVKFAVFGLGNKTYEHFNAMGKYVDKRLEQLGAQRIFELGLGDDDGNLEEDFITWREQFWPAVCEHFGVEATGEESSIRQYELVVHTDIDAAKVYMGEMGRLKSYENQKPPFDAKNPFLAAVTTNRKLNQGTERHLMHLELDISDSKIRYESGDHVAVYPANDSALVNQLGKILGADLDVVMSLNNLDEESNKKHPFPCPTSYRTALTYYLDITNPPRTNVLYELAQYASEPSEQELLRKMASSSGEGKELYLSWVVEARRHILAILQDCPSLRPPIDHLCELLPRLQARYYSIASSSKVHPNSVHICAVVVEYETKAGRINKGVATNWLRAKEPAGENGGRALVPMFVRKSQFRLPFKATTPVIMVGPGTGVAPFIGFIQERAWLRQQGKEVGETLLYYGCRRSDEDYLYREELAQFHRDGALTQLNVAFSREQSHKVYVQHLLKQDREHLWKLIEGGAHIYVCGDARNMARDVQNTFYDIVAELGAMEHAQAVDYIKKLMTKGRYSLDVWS
Chain of CYP enzymes in human liver microsomes (P08684 2-503): as the sequence (P08684 2-503) above
Chain of CYP enzymes in human liver microsomes (P16435 2-677, further chain): as the sequence (P16435 2-677, further chain) above

inhibition at 20 min, 500 µM [2] [%]	Structure (SMILES)	% of Inhibition, N-Desmethyvandetanib Formation [1]	inhibition at 20 min, 50 µM [2] [%]	% of Inhibition, Vandetanib-N-oxide Formation [3]	% of Inhibition, N-Desmethyvandetanib Formation ([1]; listed as diamantane)
–	CCN(CC)C(=S)S [DDTC, diethyldithiocarbamate]	no inhibitory effects	0	no inhibition	–
–	C1C2CC3C4CC5CC(C14)C(C2)C3C5 [Diamantane, diamantane]	0%	–	–	no inhibitory effects
< 50	Nc1ccc(S(=O)(=O)Nc2ccnn2-c2ccccc2)cc1 [Sulfaphenazole, sulfaphenazole]	–	38 ± 4	–	–
